The values that follow are results of earlier work, collected in patent US20170312324A1, “USE OF MAITAKE AND MAITAKE GRIFOLAN D COMPONENT IN PREPARATION OF ANTIDEPRESSANT DRUG” (Yunnan University, priority 2014, published 2017).

In this data set the test system is tumor. To be noted: comparison experiment with mitomycin.

Regarding `CO[C@@]12[C@H](COC(N)=O)C3=C(C(=O)C(C)=C(N)C3=O)N1C[C@@H]1N[C@@H]12` [mitomycin], the “anti-tumor rate / tumor inhibition rate” value was 45%.
